Experimental data reported in patent US11083197B2, “Herbicidal composition comprising chromone derivatives and a method for weed control” (INVESTIGACIONES BIOLÓGICAS EN AGROQUÍMICOS ROSARIO S.A., priority 2015, dated 2021).

Assays:
lettuce (Lactuca sativa) = assay: Germination / dose-response bioassay with lettuce; assay type: in vivo; settings: 1 mM; 24-well plates; rating scale of 0 to 5
Description: (§1) DCM extract of flowers of A. visnaga (1.6 g) was divided in two 800 mg halves and each one was subjected to column chromatography using an Isolera One system (Biotage), equipped with UV detector (302 and 365 nm) and automatic fraction collector. Separation was performed by normal-phase chromatography column using a SNAP Cartridge KP-Sil (37×157 mm, 50 μm irregular silica, 100 g, Biotage) and a pre-packaged SNAP Samplet Cartridge KP-Sil (37×17 mm, Biotage). A full gradient of hexane:ethyl acetate was used for elution, from 100:0 to 0:100 over 3000 ml. Flow was 40 ml/min and 25 ml fractions were collected. Equal fractions were combined based on similarities on their TLC and chromatogram profiles providing nineteen fractions named I to XIX. All fractions were evaluated for their phytotoxicity on germination bioassay of lettuce (L. sativa) and creeping bentgrass (A. stolonifera).
(§2) A filter paper and 5 lettuce or 10 mg of creeping bentgrass seeds were placed in each well of a 24-well plate. Stock solutions (10×) of test compounds were prepared in acetone. 180 μl of distilled water were added to each well together with 20 μl of stock solution or acetone in solvent control. Final concentration of acetone was 10% v/v. Plates were sealed with Parafilm, and incubated at 26° C. in a growth chamber set at 173 μmol m^−2 s^−1 continuous photosynthetically active radiation. Phytotoxic activity was qualitatively evaluated by visually comparing germination in each well with solvent control at 7 days. A qualitative estimation of phytotoxicity was obtained by using a rating scale of 0 to 5, where 0 was no effect, and 5 was no germination of seeds. This procedure was also used for testing the phytotoxicity of pure compounds on ryegrass. On this experiment 12-well plates were used. 10 seeds were placed per well and final volume was 300 μl in each one. During dose-response bioassays used for IC50 determination, germination percentage and length of plants were measured at 7 days in order to determine the concentration required for 50% germination and growth inhibition (IC50). All experiments were done in triplicate.
Using method described in Example 1, compounds of Formula III and IV above were tested against lettuce and ryegrass.
The percentage of germination and length of plants were determined at 7 days. Data represents means of three replicates±SD. The IC50 values, for both germination and growth inhibition by compounds III and IV on lettuce and ryegrass, were obtained from estimated parameters in the regression curves.
Statistical Analysis. Data from dose-response experiments were analyzed by a log-logistic model^37-38 using the dose-response curve module^39 of R software version 2.2.1.^40 Concentrations required for 50% germination or growth inhibition relative to control (IC50 values) were obtained from estimated parameters in the regression curves. The standard error (SE) of each estimation is provided. Data from phytotoxicity bioassays in the laboratory and greenhouse, ROS and cell death quantifications were analyzed by ANOVA using the InfoStat statistical software version 2015,^41 and Scheffe's test was employed to compare the means at α=0.05.

[1] = tested on: creeping bentgrass (A. stolonifera); assay: Germination bioassay with creeping bentgrass; assay type: in vivo, Agrostis stolonifera; settings: 1 mM; 24-well plates; rating scale of 0 to 5
Description: as §1, §2

ryegrass = assay: Postemergence bioassay with ryegrass in Petri dishes; assay type: in vivo; settings: Lolium multiflorum, post-emergence, day 6 (4 days after application), read-out: Growth inhibition (%) as percentage of control
Description: Plant length was measured at day 6 (4 days after application of the compounds)
Plant length's axis starts in 5 mm because seeds were pre-incubated in water, so all seedlings were around 5 mm long at the beginning of the treatment.

lettuce = assay: Postemergence bioassay with lettuce in Petri dishes; assay type: in vivo; settings: Lactuca sativa, post-emergence, read-out: Average growth inhibition (%) as percentage of control
Description: Compounds of formula III and IV above were tested at different concentrations in a postemergence bioassay (in Petri dishes) against lettuce. Lettuce seeds were pre-incubated in Petri dishes with a filter paper and water for 2 days. After that, seedlings (15 mm approx.) were moved to a new Petri dish containing 4 mL of an aqueous solution of each compound or commercial herbicide. Plants length was measured at day 6 (4 days after postemergence application of the compounds). The results were compared to those obtained with acetochlor and glyphosate.
Plant length's axis starts in 15 mm because seeds were pre-incubated in water, so all seedlings were around 15 mm long at the beginning of the treatment.

With `Cc1cc(=O)c2c(O)c3ccoc3c(O)c2o1` [4,9-dihydroxy-7-methyl-5H-furo[3,2-g]chromen-5-one] the “Phytotoxicity at day 7, Lettuce” value (lettuce (Lactuca sativa)) was 3 and the “Phytotoxicity at day 7, Creeping bentgrass” value [1] was 1.
With `COc1c2occc2c(OC)c2c(=O)cc(C(=O)O)oc12` [4,9-dimethoxy-5-oxo-5H-furo[3,2-g]chromen-7-carboxilic acid] the “Phytotoxicity at day 7, Lettuce” value (lettuce (Lactuca sativa)) was 3 and the “Phytotoxicity at day 7, Creeping bentgrass” value [1] was 3.
In the case of `COc1c2occc2c(O)c2c(=O)cc(C)oc12` [4-hydroxy-9-methoxy-7-methyl-5H-furo[3,2-g]chromen-5-one], the “Phytotoxicity at day 7, Lettuce” value (lettuce (Lactuca sativa)) is reported as 2 and the “Phytotoxicity at day 7, Creeping bentgrass” value [1] is reported as 1.
In the case of `CCOCN(C(=O)CCl)c1c(C)cccc1CC` [Acetochlor, reference compound], the inhibition at 540 µM (ryegrass; 540 μM) is reported as 97% and the inhibition at 540 µM (lettuce; 0.54 mM, day 6 (4 days after postemergence application)) is reported as 60%.
For `O=c1ccoc2ccccc12` [Chromone, 1-benzopyran-4-one], the “Phytotoxicity at day 7, Lettuce” value (lettuce (Lactuca sativa)) was 3 and the “Phytotoxicity at day 7, Creeping bentgrass” value [1] was 4.
Compound `O=C(O)CNCP(=O)(O)O` [Glyphosate, reference compound] has an inhibition at 750 µM (ryegrass; 750 μM) of 75% and an inhibition at 750 µM (lettuce) of 45%.
For `COc1c2ccoc2cc2oc(COC3OC(CO)C(O)C(O)C3O)cc(=O)c12` (centres unmarked) [Khelloside, Khellol-glucoside], the “Phytotoxicity at day 7, Lettuce” value (lettuce (Lactuca sativa)) was 1 and the “Phytotoxicity at day 7, Creeping bentgrass” value [1] was 2.
